IC50 data for 8 compounds are collected here from ChEMBL document CHEMBL5550104, “Discovery of 3-hydroxymethyl-azetidine derivatives as potent polymerase theta inhibitors” (Bioorg Med Chem, 2024).

Each structure is given as a SMILES string.

Experiment [1] concerns the target T1, DNA polymerase theta (Homo sapiens, UniProt O75417).
Experiment [2] relates to DLD-1. As to the kind of experiment: Antiproliferative activity against BRCA2 deficient human DLD-1 cells assessed as inhibition of cell growth incubated for 7 days by Cell-titer glo luminescence assay. As to conditions: DLD-1, 168 h. Type of experiment: functional, cell-based.
For experiment [3], the target named is T1, DNA polymerase theta. In words: Inhibition of DNA polymerase theta mediated TMEJ repair activity in human HEK293T cells transfected with TMEJ reporter incubated for 24 hrs by Nano-glo luciferase assay. Type of experiment: cell-based.
For experiment [4], the target named is Cytochrome P450 3A4 (Homo sapiens, UniProt P08684). As to the kind of experiment: Inhibition of CYP3A4 in human liver microsomes using midazolam as substrate incubated for 10 mins in presence of NADPH by LC-MS/MS analysis. Type of experiment: ADME, Microsome.
Experiment [5] has as its target T2, Cytochrome P450 1A2 (Homo sapiens, UniProt P05177).
T2 sequence (P05177 whole entry): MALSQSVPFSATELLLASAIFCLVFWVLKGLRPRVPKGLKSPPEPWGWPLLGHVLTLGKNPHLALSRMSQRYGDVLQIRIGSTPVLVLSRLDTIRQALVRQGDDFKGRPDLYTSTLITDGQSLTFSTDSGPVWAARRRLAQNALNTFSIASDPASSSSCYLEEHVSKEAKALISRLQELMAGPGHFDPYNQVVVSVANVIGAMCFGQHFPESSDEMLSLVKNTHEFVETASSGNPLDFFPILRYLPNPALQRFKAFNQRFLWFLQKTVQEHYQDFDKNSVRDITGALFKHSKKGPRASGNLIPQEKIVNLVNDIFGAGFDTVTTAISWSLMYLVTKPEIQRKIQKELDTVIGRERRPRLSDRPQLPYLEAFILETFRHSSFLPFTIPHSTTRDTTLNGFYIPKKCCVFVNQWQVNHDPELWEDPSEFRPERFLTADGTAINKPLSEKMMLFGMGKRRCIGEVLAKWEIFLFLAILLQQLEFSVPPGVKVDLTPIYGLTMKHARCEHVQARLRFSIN
In words: Inhibition of CYP1A2 in human liver microsomes using phenacetin as substrate incubated for 10 mins in presence of NADPH by LC-MS/MS analysis. Type of experiment: ADME, Microsome. For orientation: Microsomes from liver hold many membrane-bound enzymes, among them those of drug oxidation.

Experiment [6] has as its target Cytochrome P450 2C19 (Homo sapiens, UniProt P33261). In words: Inhibition of CYP2C19 in human liver microsomes using S-mephenytoin as substrate incubated for 10 mins in presence of NADPH by LC-MS/MS analysis. Type of experiment: ADME, Microsome.
Experiment [7] deals with Cytochrome P450 2D6 (Homo sapiens, UniProt P10635). In words: Inhibition of CYP2D6 in human liver microsomes using dextromethorphan as substrate incubated for 10 mins in presence of NADPH by LC-MS/MS analysis. Type of experiment: ADME, Microsome.
Experiment [8] concerns the target Cytochrome P450 2C9 (Homo sapiens, UniProt P11712). In words: Inhibition of CYP2C9 in human liver microsomes using diclofenac as substrate incubated for 10 mins in presence of NADPH by LC-MS/MS analysis. Type of experiment: ADME, Microsome.

T1 sequence (O75417 whole entry): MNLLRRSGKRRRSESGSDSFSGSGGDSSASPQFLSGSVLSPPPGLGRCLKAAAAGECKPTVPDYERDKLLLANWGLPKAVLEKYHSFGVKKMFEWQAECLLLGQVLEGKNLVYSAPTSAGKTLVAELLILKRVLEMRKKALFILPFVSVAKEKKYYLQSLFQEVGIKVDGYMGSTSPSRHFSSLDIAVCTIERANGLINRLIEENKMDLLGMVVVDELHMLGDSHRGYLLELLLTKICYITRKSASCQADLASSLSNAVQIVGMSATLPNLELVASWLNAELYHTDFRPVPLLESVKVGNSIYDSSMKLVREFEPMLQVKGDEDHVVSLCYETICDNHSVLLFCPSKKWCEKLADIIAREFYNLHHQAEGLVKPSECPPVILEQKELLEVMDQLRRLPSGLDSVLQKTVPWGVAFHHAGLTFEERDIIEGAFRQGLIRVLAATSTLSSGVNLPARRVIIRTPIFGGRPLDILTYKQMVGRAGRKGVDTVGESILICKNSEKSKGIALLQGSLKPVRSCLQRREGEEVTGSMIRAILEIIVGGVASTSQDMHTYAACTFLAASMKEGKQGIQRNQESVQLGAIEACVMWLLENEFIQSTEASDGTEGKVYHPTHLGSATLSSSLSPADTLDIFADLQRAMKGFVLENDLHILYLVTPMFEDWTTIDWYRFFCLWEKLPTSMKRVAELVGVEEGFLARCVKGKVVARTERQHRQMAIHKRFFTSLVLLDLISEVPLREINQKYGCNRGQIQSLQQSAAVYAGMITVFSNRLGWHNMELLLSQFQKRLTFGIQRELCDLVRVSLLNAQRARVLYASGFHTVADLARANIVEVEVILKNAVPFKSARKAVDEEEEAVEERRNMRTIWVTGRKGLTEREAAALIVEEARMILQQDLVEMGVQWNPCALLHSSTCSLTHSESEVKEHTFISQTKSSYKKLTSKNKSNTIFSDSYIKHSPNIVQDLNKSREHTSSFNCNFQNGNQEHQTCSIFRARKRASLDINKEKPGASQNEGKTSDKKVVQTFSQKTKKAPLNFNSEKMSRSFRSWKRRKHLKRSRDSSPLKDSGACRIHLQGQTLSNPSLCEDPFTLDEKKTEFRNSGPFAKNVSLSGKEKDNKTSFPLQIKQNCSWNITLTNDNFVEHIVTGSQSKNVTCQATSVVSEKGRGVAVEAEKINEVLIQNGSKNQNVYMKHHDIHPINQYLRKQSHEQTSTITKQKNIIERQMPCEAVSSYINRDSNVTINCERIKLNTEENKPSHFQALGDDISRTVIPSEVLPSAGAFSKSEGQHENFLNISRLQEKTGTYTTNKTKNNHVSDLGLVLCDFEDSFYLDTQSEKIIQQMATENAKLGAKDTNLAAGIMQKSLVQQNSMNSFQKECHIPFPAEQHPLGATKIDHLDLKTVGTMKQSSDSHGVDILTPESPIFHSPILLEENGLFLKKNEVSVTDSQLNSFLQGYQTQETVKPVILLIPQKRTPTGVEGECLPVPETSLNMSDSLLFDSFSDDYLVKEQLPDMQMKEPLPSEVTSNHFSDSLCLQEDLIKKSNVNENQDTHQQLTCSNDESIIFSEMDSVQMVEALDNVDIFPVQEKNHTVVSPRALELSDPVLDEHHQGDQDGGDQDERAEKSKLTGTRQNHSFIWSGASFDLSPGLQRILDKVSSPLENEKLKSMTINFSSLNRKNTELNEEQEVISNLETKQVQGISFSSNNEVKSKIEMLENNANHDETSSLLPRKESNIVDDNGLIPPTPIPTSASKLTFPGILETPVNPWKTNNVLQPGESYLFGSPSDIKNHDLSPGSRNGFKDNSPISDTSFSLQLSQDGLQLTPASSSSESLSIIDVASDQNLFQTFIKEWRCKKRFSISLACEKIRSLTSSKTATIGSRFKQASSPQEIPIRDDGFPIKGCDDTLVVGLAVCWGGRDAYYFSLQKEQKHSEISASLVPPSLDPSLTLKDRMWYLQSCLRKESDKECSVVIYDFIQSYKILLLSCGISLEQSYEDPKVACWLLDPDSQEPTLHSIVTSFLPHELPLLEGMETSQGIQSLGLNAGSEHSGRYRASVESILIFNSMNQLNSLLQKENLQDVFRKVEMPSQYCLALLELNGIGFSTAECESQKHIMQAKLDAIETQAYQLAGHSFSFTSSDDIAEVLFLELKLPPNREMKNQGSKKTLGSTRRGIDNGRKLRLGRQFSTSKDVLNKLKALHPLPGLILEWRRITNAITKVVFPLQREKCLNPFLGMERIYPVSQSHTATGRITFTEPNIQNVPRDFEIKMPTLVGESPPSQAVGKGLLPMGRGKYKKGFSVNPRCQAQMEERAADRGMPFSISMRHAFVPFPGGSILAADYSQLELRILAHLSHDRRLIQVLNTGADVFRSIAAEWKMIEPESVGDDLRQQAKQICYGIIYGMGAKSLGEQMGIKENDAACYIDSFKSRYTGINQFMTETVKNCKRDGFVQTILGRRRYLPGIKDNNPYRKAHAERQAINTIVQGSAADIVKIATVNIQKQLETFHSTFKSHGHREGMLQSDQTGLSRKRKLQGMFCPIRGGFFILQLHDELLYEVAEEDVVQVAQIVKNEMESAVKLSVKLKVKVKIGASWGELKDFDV
Sequence of Cytochrome P450 3A4 (P08684 whole entry): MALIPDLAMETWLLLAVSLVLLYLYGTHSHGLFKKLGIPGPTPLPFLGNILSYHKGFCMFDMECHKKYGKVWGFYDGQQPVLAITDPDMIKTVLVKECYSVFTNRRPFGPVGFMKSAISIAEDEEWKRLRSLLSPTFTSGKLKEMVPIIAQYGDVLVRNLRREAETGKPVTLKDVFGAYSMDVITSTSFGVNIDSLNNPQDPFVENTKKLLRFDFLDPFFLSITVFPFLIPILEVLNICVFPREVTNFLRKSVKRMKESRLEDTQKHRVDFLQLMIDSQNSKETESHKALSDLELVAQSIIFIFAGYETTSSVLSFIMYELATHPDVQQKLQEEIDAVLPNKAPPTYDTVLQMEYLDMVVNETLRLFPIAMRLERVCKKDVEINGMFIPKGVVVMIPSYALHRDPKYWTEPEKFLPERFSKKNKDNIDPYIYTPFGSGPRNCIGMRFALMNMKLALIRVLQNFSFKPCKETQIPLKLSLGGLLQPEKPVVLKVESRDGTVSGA
Sequence of Cytochrome P450 2C9 (P11712 whole entry): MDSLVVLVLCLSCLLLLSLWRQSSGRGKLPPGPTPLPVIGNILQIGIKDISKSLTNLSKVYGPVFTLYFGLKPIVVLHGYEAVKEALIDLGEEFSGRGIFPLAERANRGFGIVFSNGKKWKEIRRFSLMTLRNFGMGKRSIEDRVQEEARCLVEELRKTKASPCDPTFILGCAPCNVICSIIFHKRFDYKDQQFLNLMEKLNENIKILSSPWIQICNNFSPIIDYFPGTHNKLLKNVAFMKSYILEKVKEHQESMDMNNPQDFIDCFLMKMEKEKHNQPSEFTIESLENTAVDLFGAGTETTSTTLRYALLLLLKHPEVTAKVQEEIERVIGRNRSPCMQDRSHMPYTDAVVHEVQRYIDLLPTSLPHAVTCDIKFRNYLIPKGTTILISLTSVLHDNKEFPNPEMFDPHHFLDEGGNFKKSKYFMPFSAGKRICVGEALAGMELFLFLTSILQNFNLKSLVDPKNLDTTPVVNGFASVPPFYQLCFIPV
Sequence of Cytochrome P450 2D6 (P10635 whole entry): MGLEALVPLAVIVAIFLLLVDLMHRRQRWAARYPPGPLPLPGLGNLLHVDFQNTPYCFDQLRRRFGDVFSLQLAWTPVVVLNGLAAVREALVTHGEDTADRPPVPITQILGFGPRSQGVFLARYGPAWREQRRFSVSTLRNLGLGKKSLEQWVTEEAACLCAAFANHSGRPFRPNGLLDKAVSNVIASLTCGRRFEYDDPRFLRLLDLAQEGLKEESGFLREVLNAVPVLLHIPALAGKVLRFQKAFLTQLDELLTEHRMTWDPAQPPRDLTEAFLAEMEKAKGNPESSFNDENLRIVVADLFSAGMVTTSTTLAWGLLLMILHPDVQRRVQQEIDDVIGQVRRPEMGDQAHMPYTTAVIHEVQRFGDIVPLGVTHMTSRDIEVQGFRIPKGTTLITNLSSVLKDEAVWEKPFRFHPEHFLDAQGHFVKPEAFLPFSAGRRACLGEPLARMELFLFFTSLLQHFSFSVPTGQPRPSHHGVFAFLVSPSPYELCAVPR
Sequence of Cytochrome P450 2C19 (P33261 whole entry): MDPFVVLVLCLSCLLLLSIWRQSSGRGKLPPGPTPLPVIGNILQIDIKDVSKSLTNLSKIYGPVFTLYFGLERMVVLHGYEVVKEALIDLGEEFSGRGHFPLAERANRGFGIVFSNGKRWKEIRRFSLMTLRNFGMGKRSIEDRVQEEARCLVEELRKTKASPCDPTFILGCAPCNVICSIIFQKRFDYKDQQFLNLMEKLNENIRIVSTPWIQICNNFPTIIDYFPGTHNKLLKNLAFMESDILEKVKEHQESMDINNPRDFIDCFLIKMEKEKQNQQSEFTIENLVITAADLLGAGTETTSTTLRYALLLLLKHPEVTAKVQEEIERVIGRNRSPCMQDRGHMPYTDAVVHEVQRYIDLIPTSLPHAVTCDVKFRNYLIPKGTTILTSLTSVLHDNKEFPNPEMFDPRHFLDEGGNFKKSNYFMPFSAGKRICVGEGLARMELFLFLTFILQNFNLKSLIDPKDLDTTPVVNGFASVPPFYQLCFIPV

In general, IC50 refers to the concentration that inhibits the measured activity by half. The compound `Cc1cc(C(F)(F)F)cc(N2C(=O)C[C@H]2C(=O)N(C)c2ccc(F)c(Cl)c2)n1` returned an IC50 in experiment [1] of 41.3 nM. For `Cc1cc(C(F)(F)F)cc(N2CCOC[C@H]2C(=O)N(C)c2ccc(F)c(Cl)c2)n1`, in experiment [1], the midpoint of inhibition, the IC50, lay at 3890 nM. `Cc1cc(C(F)(F)F)c(C#N)c(N2CC[C@H]2C(=O)N(C)c2ccc(F)c(Cl)c2)n1`: half-maximal inhibition in experiment [1] (IC50) was put at 104 nM.

Compound `Cc1cc(C(F)(F)F)cc(N2CC[C@H]2C(=O)N(C)c2ccc(F)c(Cl)c2)n1` displayed an IC50 in experiment [1] of 221 nM. Compound `Cc1cc(C(F)(F)F)c(C#N)c(N2C(=O)C[C@H]2C(=O)N(C)c2ccc(F)c(Cl)c2)n1` displayed an IC50 in experiment [1] of 858 nM. In turn, `Cc1cc(C(F)(F)F)c(C#N)c(N2C[C@@H](CCl)[C@H]2C(=O)N(C)c2ccc(F)c(Cl)c2)n1` showed an IC50 in experiment [1] of 923 nM. Consider `Cc1cc(C(F)(F)F)c(C#N)c(N2CC[C@@H](O)[C@H]2C(=O)N(C)c2ccc(F)c(Cl)c2)n1`, for which the results for the IC50 in experiment [2], in experiment [1] and in experiment [3] were 5500 nM, 7.9 nM and 160 nM, respectively. In the case of `[2H]C([2H])([2H])N(C(=O)[C@@H]1[C@H](CO)CN1c1nc(C)cc(C(F)(F)F)c1C#N)c1ccc(F)c(Cl)c1`, the IC50 was 14600 nM in experiment [4]; over 50000 nM in experiment [5]; 770 nM in experiment [6]; 17300 nM in experiment [7]; 3100 nM in experiment [8].
